Results as given in ChEMBL document CHEMBL4725275, “Structural basis for the stabilization of amyloidogenic immunoglobulin light chains by hydantoins” (Bioorg Med Chem Lett, 2020).
Converted amounts (≈) assume the structure as drawn. The source made the active and inactive calls. No cut-off for these calls is given here.

Tests used:
[1] = biological target: Immunoglobulin lambda variable 6-57 (Homo sapiens) (UniProt P01721); assay: Binding affinity to AL patient derived full length IGLV6-57 assessed as protection against proteinase K-mediated digestion by measuring fraction remaining at 100 uM measured after 2 hrs by analytical size-exclusion chromatography
Sequence of Immunoglobulin lambda variable 6-57 (Homo sapiens) (P01721 whole entry): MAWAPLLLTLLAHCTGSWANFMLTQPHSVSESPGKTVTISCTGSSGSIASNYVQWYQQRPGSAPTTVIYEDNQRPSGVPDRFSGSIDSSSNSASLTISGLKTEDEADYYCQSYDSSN

Homo sapiens = species: Homo sapiens; assay: Kinetic stabilization of AL patient derived recombinant full length IGLV6-57 C214S mutant assessed as induction of dimer formation at 100 uM by sedimentation velocity analytical ultracentrifugation
[2] = Solubility of the compound; format: physicochemical

Activity [1] | Activity (Homo sapiens) | solubility [2] [µM] | Compound
Active | – | – | CC(C)C[C@@H]1NC(=O)N(CC(=O)Nc2ccc(C(F)(F)F)cc2)C1=O
Active | – | – | CC(C)C[C@H]1NC(=O)N(CC(=O)Nc2ccc(C(F)(F)F)cc2)C1=O
– | Active | 100 (≈ 38.3 µg/mL) | CC1CCCCC12NC(=O)N(CC(=O)Nc1ccc(C(F)(F)F)cc1)C2=O (stereo not given)
– | Active | – | CCN(CC)c1ccc2c(C)cc(=O)oc2c1
